Assay results published in US20250027130A1, “Nucleic Acid Synthesis and Sequencing Using Tethered Nucleoside Triphosphates” (The Regents of the University of California, priority 2022, published 2025).
“Also recorded” adds a separate entry of the source.

Tests used:
[1] = system: DH10B cells co-expressing MaFRSA; test: In vivo incorporation at position 200 of sfGFP, MaFRSA (intact mass, GluC LC-MS/MS); assay type: cell-based, E. coli
MaPylRS = test: RNAse A/LC-HRMS assay of Ma-tRNA^Pyl acylation by MaPylRS; assay type: biochemical, Methanomethylophilus alvus; settings: some statements also rest on intact tRNA analysis
MaFRS1 (N166A, V168L) [2] = test: Intact tRNA mass spectrometry: acylation of Ma-tRNA^Pyl by MaFRS1; assay type: biochemical, Methanomethylophilus alvus; settings: MaFRS1 2.5 μM, Ma-tRNA^Pyl 25 μM, 37° C., 2 h; average of 3 technical replicates
MaFRS2 (N166A, V168K) [3] = test: Intact tRNA mass spectrometry: acylation of Ma-tRNA^Pyl by MaFRS2; assay type: biochemical, Methanomethylophilus alvus; settings: MaFRS2 2.5 μM, Ma-tRNA^Pyl 25 μM, 37° C., 2 h; average of 3 technical replicates
MaFRSA (N166A, V168A) [4] = test: Intact tRNA mass spectrometry: acylation of Ma-tRNA^Pyl by MaFRSA; assay type: biochemical, Methanomethylophilus alvus; settings: for Yield of diacylated Ma-tRNA^Pyl / Yield of monoacylated Ma-tRNA^Pyl: MaFRSA 2.5 μM, Ma-tRNA^Pyl 25 μM, 37° C., 2 h, average of 3 technical replicates
MaFRS1 (N166A, V168L) [5] = test: RNAse A/LC-HRMS assay of Ma-tRNA^Pyl acylation by MaFRS1; assay type: biochemical, Methanomethylophilus alvus; settings: some statements also rest on intact tRNA analysis
MaFRS2 (N166A, V168K) [6] = test: RNAse A/LC-HRMS assay of Ma-tRNA^Pyl acylation by MaFRS2; assay type: biochemical, Methanomethylophilus alvus; settings: some statements also rest on intact tRNA analysis
MaFRSA (N166A, V168A) [7] = test: RNAse A/LC-HRMS assay of Ma-tRNA^Pyl acylation by MaFRSA; assay type: biochemical, Methanomethylophilus alvus; settings: RNAse A/LC-HRMS and intact tRNA analysis
MaFRSA = test: Malachite green assay to monitor adenylation by MaFRSA; assay type: biochemical, Methanomethylophilus alvus
Protocol: Malachite green assay to monitor adenylation. Enzymatic adenylation reactions were monitored using malachite green using a previous protocol with modifications^52. Each adenylation reaction (60 μL) contained the following components: 200 mM HEPES-K (pH 7.5), 4 mM DTT, 10 mM MgCl2, 0.2 mM ATP, 0-10 mM substrate, 4 U/mL E. coli inorganic pyrophosphatase (NEB), and 2.5 μM enzyme (MaFRS1 or MaFRSA). Adenylation reactions were incubated at 37° C. in a dry-air incubator. Aliquots (10 μL) were withdrawn after 0, 5, 10, 20, and 30 min and quenched upon addition to an equal volume of 20 mM EDTA (pH 8.0) on ice. Once all aliquots were withdrawn, 80 μL of Malachite Green Solution (Echelon Biosciences) was added to each aliquot and the mixture incubated at RT for 30 min. After shaking for 30 sec to remove bubbles, the absorbance at 620 nm was measured on a Synergy HTX plate reader (BioTek). The absorbance was then converted to phosphate concentration using a phosphate standard curve (0-100 μM) and plotted over time to determine turnover numbers.

[8] = samples vi-vii, DH10B, defined media lacking glutamate, 1 mM substrate

| SMILES | Yield of diacylated Ma-tRNA^Pyl (MaFRS1 (N166A, V168L) [2]) [%] | Yield of monoacylated Ma-tRNA^Pyl (MaFRS1 (N166A, V168L) [2]) [%] | Yield of diacylated Ma-tRNA^Pyl (MaFRS2 (N166A, V168K) [3]) [%] | Yield of monoacylated Ma-tRNA^Pyl (MaFRS2 (N166A, V168K) [3]) [%] | Yield of diacylated Ma-tRNA^Pyl (MaFRSA (N166A, V168A) [4]) [%] | Yield of monoacylated Ma-tRNA^Pyl (MaFRSA (N166A, V168A) [4]) [%] | Substrate activity for MaFRS1 (in words) (MaFRS1 (N166A, V168L) [5]) | Substrate activity for MaFRS2 (in words) (MaFRS2 (N166A, V168K) [6]) | Substrate activity for MaFRSA (in words) (MaFRSA (N166A, V168A) [7]) | other results |
| --- | --- | --- | --- | --- | --- | --- | --- | --- | --- | --- |
| N[C@@H](Cc1cccc(C(F)(F)F)c1)C(=O)O [Sample 20] | – | – | – | – | – | – | – | – | – | sfGFP containing variant 20 at position 200 [1, 8]: 97.14% |
| CC(C)(C)OC(=O)NCCCCC(C(=O)O)C(=O)O [Substrate 16] | – | – | – | – | – | – | – | – | – | Substrate activity for MaPylRS (in words) (MaPylRS): accepts; also recorded: measurable substrate |
| N[C@@H](Cc1cccc(C(F)(F)F)c1)C(=O)O [Substrate 20] | – | – | – | – | – | – | – | – | – | Intact mass of expressed sfGFP variant (in words) ([1]; E. coli DH10B, 1 mM monomer, sfGFP-200TAG): mass corresponded to the presence of a single trifluoromethyl phenylalanine side chain; sfGFP containing variant 1 at position 200 [1, 8]: 0.00%; sfGFP containing variant 2 at position 200 [1, 8]: 0.00%; sfGFP containing variant 21 at position 200 [1, 8]: 0.63%; sfGFP containing variant A at position 200 [1, 8]: 0.14%; sfGFP containing variant F at position 200 [1, 8]: 0.15%; sfGFP containing variant K at position 200 [1, 8]: 0.14%; sfGFP containing variant Q at position 200 [1, 8]: 0.62%; sfGFP containing variant W at position 200 [1, 8]: 1.02%; sfGFP containing variant Y at position 200 [1, 8]: 0.15% |
| O=C(O)C(Cc1cccc(C(F)(F)F)c1)C(=O)O [Substrate 18] | 9.24 | 59.3 | 0 | 26.1 | 0 | 31.4 | accept; also recorded: excellent substrates | accept; also recorded: excellent substrates | highest activity | Acylation product in competition of L-Phe 7 and 18 (MaFRSA (N166A, V168A) [4]; MaFRSA incubated with equal concentration (10 mM) of L-Phe 7 and meta-CF3-2-BMA 18): Only the acylation product of 18 and Ma-tRNA^Pyl is observed; also recorded: only the malonyl product (18-tRNA^Pyl) is observed; Rate of adenylation as % of the rate observed for meta-CF3-L-Phe (MaFRSA): 36% |
| N[C@@H](Cc1ccccc1)C(=O)O [Substrate 7, L-phenylalanine, reference compound] | – | – | – | – | – | – | – | – | low activity | – |
| O=C(O)C(Cc1cccc(Br)c1)C(=O)O [Substrate 19] | 10.8 | 37.4 | 0 | 32.7 | 0 | 22.3 | accept; also recorded: excellent substrates | accept; also recorded: excellent substrates | high activity | – |
| N[C@H](Cc1ccccc1)C(=O)O [Substrate 11, D-phenylalanine] | – | – | – | – | – | – | no reactivity was detected | no reactivity was detected | – | – |
| CC(C)(C)OC(=O)NCCCC[C@@H](N)C(=O)O [Substrate 5, N^ε-(tert-butoxycarbonyl)-D-lysine] | – | – | – | – | – | – | – | – | – | Substrate activity for MaPylRS (in words) (MaPylRS): No reactivity was detected |
| Cc1cccc(CC(C(=O)O)C(=O)O)c1 [Substrate 17] | 3.64 | 49.8 | 0 | 52.0 | 1.54 | 9.48 | accept; also recorded: excellent substrates | accept; also recorded: excellent substrates | high activity | – |
